Measurements from ChEMBL document CHEMBL3882245, “Novel aminopyridine derivatives having aurora a selective inhibitory action” (2008).

Test: Cytotoxicity against human HeLaS3 cells assessed as cell growth inhibition at 0.3 nM after 3 days by WST-8 assay
Assay type: functional
Conditions: HeLa S3, 72 h, read-out: GI

CC(=O)O[C@@]12CO[C@@H]1C[C@H](O)[C@@]1(C)C(=O)[C@H](O)C3=C(C)[C@@H](OC(=O)[C@H](O)[C@@H](NC(=O)OC(C)(C)C)c4ccccc4)C[C@@](O)([C@@H](OC(=O)c4ccccc4)[C@H]21)C3(C)C [DOCETAXEL ANHYDROUS]
inhibition of growth at 0.0003 µM: 25.6 to 53.4%
